In patent publication US20090030088A1, “Therapeutic benefits of gossypol, 6-methoxy gossypol, and 6,6'-dimothxy gossypol” (Clemson University, priority 2007, published 2009):

What was measured:
Trypanosome brucei cells = assay: Anti-trypanosomal activity, relative cell viability by flow cytometry; type: cell-based
Procedure: Anti-trypanosomal activities. Trypanosome brucei cells were grown in HMI-9 medium supplemented with 10% heat-inactivated fetal bovine serum and cultured as described by (13). Prior to treatment, 200 μL of the cells were seeded into 96-well tissue culture plate and treated with 2 μL of gossypol or methoxy gossypol derivatives dissolved in DMSO. After 24 hour incubation at 37° C. with 5% CO2 and 90-100% relative humidity, the cells were counted on a Becton Dickinson FACScan flow Cytometer, and the relative cell viability was calculated by comparing the vital cell number with control wells treated only with DMSO. Statistical Analysis. Each experiment was done at least three times, mean values were average of the triplicates, and the data were subjected to the analysis of variance (ANOVA).

plasmid DNA = assay: DNA strand scission assay (H2O2/UV hydroxyl radicals); parameters: species or system E. coli; conditions: no oxidative stress
Procedure: Analysis of DNA Strand Breakage. The DNA strand scission assay was performed as described by Keum et al., (11) with minor modifications. The plasmid DNA was prepared and purified from E. coli cultures by the method (12). The reaction mixture (15 μL) contained 10 mM Tris-HCl, 1 mM EDTA buffer (pH 8.0), plasmid DNA (1 μL), and H2O2 (0.04 M). Gossypol and methoxy gossypol derivatives dissolved in DMSO at the defined concentrations were added prior to H2O2 addition. Hydroxyl radicals were generated by irradiation of the reaction mixture at a distance of 30 cm with a 12 W UV lamp. After incubation at room temperature for 30 min, the reaction was stopped by adding a loading buffer (0.25% bromophenol blue tracking dye and 40% sucrose), and analyzed by 1% agarose gel electrophoresis. The gel was visualized by staining with ethidium bromide, and photographed on a transiluminator (Biorad).

[1] = DPPH free radical scavenging assay; conditions: for concentration to scavenge 50% free radicals (IC50 value): DPPH in DCM, 30 min
Procedure: DPPH Free Radical Scavenging Assay. Scavenging activities on DPPH free radicals by gossypol and methoxy gossypol derivatives were determined according to the method of (9) with slight modification. The reaction mixture was made by mixing 0.4 mL of sample solution in DCM and same volume of 0.25 mM DPPH in DCM, shaken vigorously, incubated for 30 min in the dark at room temperature, and measured spectrophotometrically at 517 nm. BHT, a common used antioxidant, was used as a standard for comparison. The lower absorbance of reaction mixture indicated higher free radical scavenging activity, and the reduction of DPPH free radicals was calculated as following: […]

[2] = test system: Caco-2 (human colon cancer cell line); assay: Cancer cell proliferation assay (CellTiter 96), Caco-2; type: cell-based; conditions: 10 ppm
Procedure: (§1) Anticancer Activities. Three cancer cell lines, MCF-7 (human breast cancer cell line), Caco-2 (human colon cancer cell line) and SiHa (cervical cancer cell line) were purchased from American Type Culture Collection (ATCC) (Rockville, Md.). MCF-7 and SiHa were cultured in RPMI-1640 with L-glutamine (2 mM), sodium pyruvate (1 mM), penicillin (100 unit/mL), streptomycin (0.1 mg/mL), 0.1 mM non-essential amino acids, 2.0 g/L sodium bicarbonate and 10% newborn calf serum. For Caco-2 cells, 10% fetal bovine serum was added instead of 10% newborn calf serum. All cell lines were incubated at 37° C. with 5% CO2 and 90-100% relative humidity. Medium renewal was carried out 2-3 times per week, and cells were subcultured when they were about 80-90% confluence.
(§2) Prior to chemical treatment, 10^4 cells/well (100 μL) were seeded into a 96-well tissue culture plate, and allowed to attach for 24 hours, then treated with defined concentrations of the tested chemicals in DMSO. Negative controls were cells treated with DMSO only, and DMSO concentration was kept 2% in each well. After 24 hour incubation, cell proliferation was determined using the CellTiter 96® aqueous nonradioactivity cell proliferation assay according to the manufacture's recommendations (Promega, Madison, Wis.) and recorded on universal EL800 Bio-Tek microplate reader at 490 nm.

[3] = test system: SiHa (cervical cancer cell line); assay: Cancer cell proliferation assay (CellTiter 96), SiHa; type: cell-based; conditions: 10 ppm
Procedure: as §1, §2

[4] = test system: MCF-7 (human breast cancer cell line); assay: Cancer cell proliferation assay (CellTiter 96), MCF-7; type: cell-based; conditions: 10 ppm
Procedure: as §1, §2

| Structure (SMILES) | inhibition at 1 ppm (Trypanosome brucei cells; 24 h, read-out: inhibition of trypanosome cell growth) | DNA damage by the presence of the chemical alone (plasmid DNA) | free radicals scavenged ([1]; BHT at 1000 ppm) | free radicals scavenged ([1]; BHT at 1500 ppm) | cancer inhibitive activity compared with gossypol [2] | concentration to scavenge 50% free radicals (IC50 value) [1] | free radicals scavenged ([1]; compound at 20 ppm) | cancer inhibitive activity compared with gossypol [3] | cancer inhibitive activity compared with gossypol [4] | inhibition of trypanosome cell growth (Trypanosome brucei cells; 1 ppm, 24 hour incubation) |
| --- | --- | --- | --- | --- | --- | --- | --- | --- | --- | --- |
| Cc1cc2c(C(C)C)c(O)c(O)c(C=O)c2c(O)c1-c1c(C)cc2c(C(C)C)c(O)c(O)c(C=O)c2c1O [gossypol] | 40% | did not cause the DNA damage |  |  |  |  |  |  |  |  |
| Cc1cc(C(C)(C)C)c(O)c(C(C)(C)C)c1 [BHT, butylated hydroxytoluene, reference compound] |  |  | ~60% | 75% |  |  |  |  |  |  |
| COc1c(O)c(C=O)c2c(O)c(-c3c(C)cc4c(C(C)C)c(OC)c(O)c(C=O)c4c3O)c(C)cc2c1C(C)C [6,6′-dimethoxy gossypol] |  |  |  |  | higher cancer inhibitive activity than gossypol | 16.8 ppm | 60% | higher cancer inhibitive activity than gossypol | higher cancer inhibitive activity than gossypol |  |
| COc1c(O)c(C=O)c2c(O)c(-c3c(C)cc4c(C(C)C)c(O)c(O)c(C=O)c4c3O)c(C)cc2c1C(C)C [6-methoxy gossypol] |  | did not cause the DNA damage |  |  | higher cancer inhibitive activity than gossypol | 16.4 ppm | 60% | higher cancer inhibitive activity than gossypol | higher cancer inhibitive activity than gossypol | 40% |
